target: T1, GST-RIPK1 (recombinant GST-RIPK1 kinase domain (residues 1-327)) (Homo sapiens, UniProt Q13546); test: RIPK1-ADP-Glo enzymatic assay; type: biochemical; details: 25 nM GST-RIPK1, 300 μM ATP, 3 μM dephosphorylated-MBP; 30 minutes pre-incubation, 150 minutes reaction; ten-point titration
T1 construct: recombinant GST-RIPK1 kinase domain (residues 1-327) enzyme; made in house; host or cells: baculovirus-transfected Sf21 insect cells
T1 sequence (Q13546 1-327): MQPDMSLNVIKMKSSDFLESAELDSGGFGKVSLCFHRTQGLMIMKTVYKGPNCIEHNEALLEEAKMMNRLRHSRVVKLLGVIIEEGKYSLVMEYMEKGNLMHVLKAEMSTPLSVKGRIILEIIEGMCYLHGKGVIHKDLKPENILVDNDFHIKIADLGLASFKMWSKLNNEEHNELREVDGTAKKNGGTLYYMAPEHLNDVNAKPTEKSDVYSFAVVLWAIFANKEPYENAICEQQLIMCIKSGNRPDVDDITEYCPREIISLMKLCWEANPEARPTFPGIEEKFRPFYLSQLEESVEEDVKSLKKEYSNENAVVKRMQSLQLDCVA
Method in brief: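 Ten-point 1:3 titrations from 100000 nM, 1% DMSO, were preincubated 30 min with 25 nM GST-RIPK1 (1-327) before starting with 300 μM ATP plus 3 μM dephosphorylated MBP; 150 min reaction. ADP-Glo luminescence measured ATP-to-ADP conversion; EC50 by four-parameter sigmoidal regression.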

Point of comparison: `CC(C)(C)C(=O)N1C[C@@H]2C[C@H]1c1cncc(C#Cc3ccccc3)c1O2` [Compound 2-20, 2,2-Dimethyl-1-((2S,5S)-9-(phenylethynyl)-2,3-dihydro-2,5-methanopyrido[3,4-f][1,4]oxazepin-4(5H)-yl)propan-1-one], IC50 72 nM. Against it:
- CC(F)(F)C1(C(=O)N2C[C@@H]3C[C@H]2c2cncc(Cl)c2O3)CCC1 [Compound 2-11, ((2S,5S)-9-chloro-2,3-dihydro-2,5-methanopyrido[3,4-f][1,4]oxazepin-4(5H)-yl)(1-(1,1-difluoroethyl)cyclobutyl) methanone] — within 1.5-fold, 57 nM
- O=C(N1C[C@@H]2C[C@H]1c1cncc(Cl)c1O2)C1(C(F)F)CCC1 [Compound 2-12, ((2S,5S)-9-chloro-2,3-dihydro-2,5-methanopyrido[3,4-f][1,4]oxazepin-4(5H)-yl)(1-(difluoromethyl)cyclobutyl) methanone] — 1.7-fold higher, 124 nM
- Cc1cncc2c1O[C@H]1C[C@@H]2N(C(=O)C(C)(C)C)C1 [Compound 2-13, 2,2-dimethyl-1-((2S,5S)-9-methyl-2,3-dihydro-2,5-methanopyrido[3,4-f][1,4]oxazepin-4(5H)-yl)propan-1-one] — 15-fold higher, 1100 nM
- O=C(N1C[C@@H]2C[C@H]1c1cncc(F)c1O2)C12CCC(C(F)(F)F)(CC1)C2 [Compound 2-14, ((2S,5S)-9-fluoro-2,3-dihydro-2,5-methanopyrido[3,4-f][1,4]oxazepin-4(5H)-yl)(4-(trifluoromethyl)bicyclo [2.2.1]heptan-1-yl)methanone] — 3.6-fold lower, 20 nM
- O=C(N1C[C@@H]2C[C@H]1c1cncc(F)c1O2)C12CCC(F)(CC1)CC2 [Compound 2-15, ((2S,5S)-9-fluoro-2,3-dihydro-2,5-methanopyrido[3,4-f][1,4]oxazepin-4(5H)-yl)(4-fluorobicyclo[2.2.2]octan-1-yl)methanone] — within 1.5-fold, 81 nM
- CC(C)(C(=O)N1C[C@@H]2C[C@H]1c1cncc(F)c1O2)C1CC1 [Compound 2-16, 2-cyclopropyl-1-((2S,5S)-9-fluoro-2,3-dihydro-2,5-methanopyrido[3,4-f][1,4]oxazepin-4(5H)-yl)-2-methylpropan-1-one] — within 1.5-fold, 74 nM
- C#Cc1cncc2c1O[C@H]1C[C@@H]2N(C(=O)C(C)(C)C)C1 [Compound 2-17, 1-((2S,5S)-9-Ethynyl-2,3-dihydro-2,5-methanopyrido[3,4-f][1,4]oxazepin-4(5H)-yl)-2,2-dimethylpropan-1-one] — within 1.5-fold, 50 nM
- O=C(N1C[C@@H]2C[C@H]1c1cncc(F)c1O2)C12CCC(CC1)C2 [Compound 2-21, bicyclo[2.2.1]heptan-1-yl((2S,5S)-9-fluoro-2,3-dihydro-2,5-methanopyrido[3,4-f][1,4]oxazepin-4(5H)-yl)methanone] — 1.9-fold lower, 37 nM
- CC(F)(F)C(C)(C)C(=O)N1C[C@@H]2C[C@H]1c1cncc(F)c1O2 [Compound 2-22, 3,3-difluoro-1-((2S,5S)-9-fluoro-2,3-dihydro-2,5-methanopyrido[3,4-f][1,4]oxazepin-4(5H)-yl)-2,2-dimethylbutan-1-one] — within 1.5-fold, 67 nM
- CC1(C(=O)N2C[C@@H]3C[C@H]2c2cncc(F)c2O3)CCCC1 [Compound 2-23, ((2S,5S)-9-fluoro-2,3-dihydro-2,5-methanopyrido[3,4-f][1,4]oxazepin-4(5H)-yl)(1-methylcyclopentyl) methanone] — within 1.5-fold, 74 nM
- N#CC12CCC(C(=O)N3C[C@@H]4C[C@H]3c3cncc(F)c3O4)(C1)C2 [Compound 2-24, 4-((2S,5S)-9-fluoro-2,3,4,5-tetrahydro-2,5-methanopyrido[3,4-f][1,4]oxazepine-4-carbonyl)bicyclo[2.1.1] hexane-1-carbonitrile] — 1.5-fold higher, 111 nM
- CC1(C(=O)N2C[C@@H]3C[C@H]2c2cncc(Cl)c2O3)CCCC1 [Compound 2-25, ((2S,5S)-9-chloro-2,3-dihydro-2,5-methanopyrido[3,4-f][1,4]oxazepin-4(5H)-yl)(1-methylcyclopentyl) methanone] — within 1.5-fold, 79 nM

Reference: patent US20240228506A1, “RIPK1 INHIBITORS AND METHODS OF USE” (Merck Sharp & Dohme LLC, priority 2021, published 2024)
